{
  "source": "ChEMBL document CHEMBL5584236",
  "about": "“Development of novel bisphenol derivatives with a membrane-targeting mechanism as potent gram-positive antibacterial agents” (Eur J Med Chem, 2024)",
  "key": {"Staphylococcus aureus [1]": {"tested_on": "Staphylococcus aureus", "test": "Synergistic […] activity against Staphylococcus aureus ATCC29213 assessed as fractional inhibitory concentration index incubated for 22 to 24 hrs in presence of tobramycin by CLSI based broth microdilution method", "format": "functional", "details": "time 22-24 hrs"}, "Staphylococcus aureus [2]": {"tested_on": "Staphylococcus aureus", "test": "Induction of membrane permeabilization in methicillin-resistant Staphylococcus aureus NCTC10442 assessed as increase in fluorescence intensity measured upto 60 mins by SYTOX green assay", "format": "functional, organism-based"}, "Staphylococcus aureus [3]": {"tested_on": "Staphylococcus aureus", "test": "Synergistic […] activity against methicillin-resistant Staphylococcus aureus NCTC10442 assessed as fractional inhibitory concentration index incubated for 22 to 24 hrs in presence of linezolid by CLSI based broth microdilution method", "format": "functional", "details": "time 22-24 hrs"}, "Klebsiella pneumoniae [4]": {"tested_on": "Klebsiella pneumoniae", "test": "Synergistic […] activity against Klebsiella pneumoniae ATCC10031 assessed as fractional inhibitory concentration index incubated for 22 to 24 hrs in presence of amikacin by CLSI based broth microdilution method", "format": "functional", "details": "time 22-24 hrs"}, "Klebsiella pneumoniae [5]": {"tested_on": "Klebsiella pneumoniae", "test": "Synergistic […] activity against Klebsiella pneumoniae ATCC10031 assessed as fractional inhibitory concentration index incubated for 22 to 24 hrs in presence of gentamicin by CLSI based broth microdilution method", "format": "functional", "details": "time 22-24 hrs"}, "[6]": {"test": "Cytotoxicity against HEK293 cells assessed as viable cells at 50 ug/ml incubated for 24 hrs by CCK-8 assay relative to control", "format": "toxicity, cell-based", "details": "human, at 50 µg/mL, read-out: Activity"}, "Staphylococcus aureus [7]": {"tested_on": "Staphylococcus aureus", "test": "Synergistic […] activity against methicillin-resistant Staphylococcus aureus NCTC10442 assessed as fractional inhibitory concentration index incubated for 22 to 24 hrs in presence of fusidic acid by CLSI based broth microdilution method", "format": "functional", "details": "time 22-24 hrs"}, "Staphylococcus aureus [8]": {"tested_on": "Staphylococcus aureus", "test": "Antibacterial activity against Staphylococcus aureus ATCC29213 assessed as reduction in bacterial growth incubated for 22 to 24 hrs in presence of KCl by CLSI based broth microdilution method", "format": "functional", "details": "time 22-24 hrs"}, "Acinetobacter baumannii [9]": {"tested_on": "Acinetobacter baumannii", "test": "Antibacterial activity against Acinetobacter baumannii ATCC17978 assessed as reduction in microbial growth incubated for 22 to 24 hrs by CLSI based broth microdilution method", "format": "functional", "details": "time 22-24 hrs"}, "Klebsiella pneumoniae [10]": {"tested_on": "Klebsiella pneumoniae", "test": "Synergistic […] activity against Klebsiella pneumoniae ATCC10031 assessed as fractional inhibitory concentration index incubated for 22 to 24 hrs in presence of levofloxacin by CLSI based broth microdilution method", "format": "functional", "details": "time 22-24 hrs"}, "Acinetobacter baumannii [11]": {"tested_on": "Acinetobacter baumannii", "test": "Synergistic […] activity against Acinetobacter baumannii ATCC17978 assessed as fractional inhibitory concentration index incubated for 22 to 24 hrs in presence of meropenem by CLSI based broth microdilution method", "format": "functional", "details": "time 22-24 hrs"}, "Staphylococcus aureus [12]": {"tested_on": "Staphylococcus aureus", "test": "Synergistic […] activity against Staphylococcus aureus ATCC29213 assessed as fractional inhibitory concentration index incubated for 22 to 24 hrs in presence of mupirocin by CLSI based broth microdilution method", "format": "functional", "details": "time 22-24 hrs"}, "Staphylococcus aureus [13]": {"tested_on": "Staphylococcus aureus", "test": "Bactericidal activity against methicillin-resistant Staphylococcus aureus NCTC10442 assessed as cell killing at 8 times of MIC measured with in 1 hr by time kill assay relative to control", "format": "functional"}, "Staphylococcus aureus [14]": {"tested_on": "Staphylococcus aureus", "test": "Antibacterial activity against Staphylococcus aureus ATCC29213 assessed as reduction in bacterial growth incubated for 22 to 24 hrs in presence of FeCl2 by CLSI based broth microdilution method", "format": "functional", "details": "time 22-24 hrs"}, "[15]": {"test": "Hemolytic activity against rabbit RBC incubated for 1 hr by multimode plate reader", "format": "toxicity, cell-based, Oryctolagus cuniculus, Erythrocyte", "details": "rabbit red blood cells (erythrocytes)"}, "Acinetobacter baumannii [16]": {"tested_on": "Acinetobacter baumannii", "test": "Synergistic […] activity against Acinetobacter baumannii ATCC17978 assessed as fractional inhibitory concentration index incubated for 22 to 24 hrs in presence of levofloxacin by CLSI based broth microdilution method", "format": "functional", "details": "time 22-24 hrs"}, "Staphylococcus aureus [17]": {"tested_on": "Staphylococcus aureus", "test": "Antibacterial activity against methicillin-resistant Staphylococcus aureus N315 assessed as reduction in bacterial growth incubated for 22 to 24 hrs in presence of CaCl2 by CLSI based broth microdilution method", "format": "functional", "details": "time 22-24 hrs"}, "Staphylococcus aureus [18]": {"tested_on": "Staphylococcus aureus", "test": "Antibacterial activity against methicillin-resistant Staphylococcus aureus NCTC10442 assessed as reduction in bacterial growth incubated for 22 to 24 hrs in presence of ZnSO4.7H2O by CLSI based broth microdilution method", "format": "functional", "details": "time 22-24 hrs"}, "Staphylococcus aureus [19]": {"tested_on": "Staphylococcus aureus", "test": "Antibacterial activity against Staphylococcus aureus ATCC29213 assessed as reduction in bacterial growth incubated for 22 to 24 hrs in presence of MgCl2 by CLSI based broth microdilution method", "format": "functional", "details": "time 22-24 hrs"}, "Staphylococcus aureus [20]": {"tested_on": "Staphylococcus aureus", "test": "Induction of membrane permeabilization in Staphylococcus aureus ATCC29213 assessed as increase in fluorescence intensity measured upto 60 mins by SYTOX green assay", "format": "functional, organism-based"}, "Staphylococcus aureus [21]": {"tested_on": "Staphylococcus aureus", "test": "Synergistic […] activity against Staphylococcus aureus ATCC29213 assessed as fractional inhibitory concentration index incubated for 22 to 24 hrs in presence of vancomycin by CLSI based broth microdilution method", "format": "functional", "details": "time 22-24 hrs"}, "Staphylococcus aureus [22]": {"tested_on": "Staphylococcus aureus", "test": "Antibacterial activity against methicillin-resistant Staphylococcus aureus NCTC10442 assessed as reduction in bacterial growth incubated for 22 to 24 hrs in presence of FeCl2 by CLSI based broth microdilution method", "format": "functional", "details": "time 22-24 hrs"}, "Staphylococcus aureus [23]": {"tested_on": "Staphylococcus aureus", "test": "Drug resistance, ratio of MIC for Staphylococcus aureus ATCC29213 after 20 passages to MIC for Staphylococcus aureus ATCC29213 after initial exposure", "format": "functional"}, "Staphylococcus aureus [24]": {"tested_on": "Staphylococcus aureus", "test": "Synergistic […] activity against methicillin-resistant Staphylococcus aureus NCTC10442 assessed as fractional inhibitory concentration index incubated for 22 to 24 hrs in presence of mupirocin by CLSI based broth microdilution method", "format": "functional", "details": "time 22-24 hrs"}, "Staphylococcus aureus [25]": {"tested_on": "Staphylococcus aureus", "test": "Antibacterial activity against Staphylococcus aureus ATCC29213 infected in C57BL6 mouse corneal infection model assessed as log reduction in CFU at 0.5 % administered topically on corneas for four times in 3 days by MHA plate counting method", "format": "functional", "details": "route top, time 3 day"}, "Staphylococcus aureus [26]": {"tested_on": "Staphylococcus aureus", "test": "Antibacterial activity against Staphylococcus aureus ATCC29213 assessed as reduction in bacterial growth incubated for 22 to 24 hrs in presence of CaCl2 by CLSI based broth microdilution method", "format": "functional", "details": "time 22-24 hrs"}, "[27]": {"test": "Cytotoxicity against HEK293 cells assessed reduction in cell viability incubated for 24 hrs by CCK-8 assay", "format": "toxicity, cell-based", "details": "human"}, "Staphylococcus aureus [28]": {"tested_on": "Staphylococcus aureus", "test": "Synergistic […] activity against Staphylococcus aureus ATCC29213 assessed as fractional inhibitory concentration index incubated for 22 to 24 hrs in presence of fusidic acid by CLSI based broth microdilution method", "format": "functional", "details": "time 22-24 hrs"}, "Acinetobacter baumannii [29]": {"tested_on": "Acinetobacter baumannii", "test": "Synergistic […] activity against Acinetobacter baumannii ATCC17978 assessed as fractional inhibitory concentration index incubated for 22 to 24 hrs in presence of gentamicin by CLSI based broth microdilution method", "format": "functional", "details": "time 22-24 hrs"}, "Staphylococcus aureus [30]": {"tested_on": "Staphylococcus aureus", "test": "Antibacterial activity against Staphylococcus aureus ATCC29213 assessed as reduction in bacterial growth incubated for 22 to 24 hrs in presence of NaCl by CLSI based broth microdilution method", "format": "functional", "details": "time 22-24 hrs"}, "Staphylococcus aureus [31]": {"tested_on": "Staphylococcus aureus", "test": "Synergistic […] activity against Staphylococcus aureus ATCC29213 assessed as fractional inhibitory concentration index incubated for 22 to 24 hrs in presence of linezolid by CLSI based broth microdilution method", "format": "functional", "details": "time 22-24 hrs"}, "[32]": {"test": "Cytotoxicity against mouse NCTC clone 929 cells assessed reduction in cell viability incubated for 24 hrs by CCK-8 assay", "format": "toxicity, cell-based", "details": "NCTC clone 929 (L929) cells"}, "Staphylococcus aureus [33]": {"tested_on": "Staphylococcus aureus", "test": "Antibacterial activity against Staphylococcus aureus ATCC29213 assessed as reduction in bacterial growth incubated for 22 to 24 hrs in presence of FeCl3 by CLSI based broth microdilution method", "format": "functional", "details": "time 22-24 hrs"}, "[34]": {"test": "Cytotoxicity against mouse NCTC clone 929 cells assessed as viable cells at 6.25 ug/ml incubated for 24 hrs by CCK-8 assay relative to control", "format": "toxicity, cell-based", "details": "NCTC clone 929 (L929) cells, at 6.25 µg/mL, read-out: Activity"}},
  "data": [
    {"smiles": "COC(=O)[C@H](CCCNC(=N)N)NC(=O)[C@H](CCCNC(=N)N)NC(=O)COc1ccc(S(=O)(=O)c2ccc(OC/C=C(/C)CCC=C(C)C)cc2)cc1", "values": [
      {"measurement": "fractional inhibitory concentration index (FICI)", "setting": "Staphylococcus aureus [1]", "result": 0.38},
      {"measurement": "Activity", "setting": "Staphylococcus aureus [2]", "result": "Dose-Dependent Effect"},
      {"measurement": "fractional inhibitory concentration index (FICI)", "setting": "Staphylococcus aureus [3]", "result": 0.27},
      {"measurement": "fractional inhibitory concentration index (FICI)", "setting": "Klebsiella pneumoniae [4]", "result": 0.31},
      {"measurement": "fractional inhibitory concentration index (FICI)", "setting": "Klebsiella pneumoniae [5]", "result": 0.5},
      {"measurement": "viability at 24 h, 50 ug/ml", "setting": "[6]", "result": 91.5, "unit": "%"},
      {"measurement": "fractional inhibitory concentration index (FICI)", "setting": "Staphylococcus aureus [7]", "result": 0.5},
      {"measurement": "MIC", "setting": "Staphylococcus aureus [8]", "result": 1.56, "unit": "µg/mL"},
      {"measurement": "MIC", "setting": "Acinetobacter baumannii [9]", "result": 12.5, "unit": "µg/mL"},
      {"measurement": "fractional inhibitory concentration index (FICI)", "setting": "Klebsiella pneumoniae [10]", "result": 0.56},
      {"measurement": "fractional inhibitory concentration index (FICI)", "setting": "Acinetobacter baumannii [11]", "result": 0.25},
      {"measurement": "fractional inhibitory concentration index (FICI)", "setting": "Staphylococcus aureus [12]", "result": 0.625},
      {"measurement": "Activity", "setting": "Staphylococcus aureus [13]", "result": 99.99, "unit": "%"},
      {"measurement": "MIC", "setting": "Staphylococcus aureus [14]", "result": 1.56, "unit": "µg/mL"},
      {"measurement": "HC50 at 1 h", "setting": "[15]", "result": "> 200", "unit": "µg/mL"},
      {"measurement": "fractional inhibitory concentration index (FICI)", "setting": "Acinetobacter baumannii [16]", "result": 0.25},
      {"measurement": "MIC", "setting": "Staphylococcus aureus [17]", "result": 3.12, "unit": "µg/mL"},
      {"measurement": "MIC", "setting": "Staphylococcus aureus [18]", "result": 1.56, "unit": "µg/mL"},
      {"measurement": "MIC", "setting": "Staphylococcus aureus [19]", "result": 1.56, "unit": "µg/mL"},
      {"measurement": "Activity", "setting": "Staphylococcus aureus [20]", "result": "Dose-Dependent Effect"},
      {"measurement": "fractional inhibitory concentration index (FICI)", "setting": "Staphylococcus aureus [21]", "result": 0.5},
      {"measurement": "MIC", "setting": "Staphylococcus aureus [22]", "result": 1.56, "unit": "µg/mL"},
      {"measurement": "Ratio", "setting": "Staphylococcus aureus [23]", "result": 4},
      {"measurement": "fractional inhibitory concentration index (FICI)", "setting": "Staphylococcus aureus [24]", "result": 1},
      {"measurement": "log(activity)", "setting": "Staphylococcus aureus [25]", "result": 6.9},
      {"measurement": "MIC", "setting": "Staphylococcus aureus [26]", "result": 3.12, "unit": "µg/mL"},
      {"measurement": "CC50 at 24 h", "setting": "[27]", "result": "> 100", "unit": "µg/mL"},
      {"measurement": "fractional inhibitory concentration index (FICI)", "setting": "Staphylococcus aureus [28]", "result": 0.28},
      {"measurement": "fractional inhibitory concentration index (FICI)", "setting": "Acinetobacter baumannii [29]", "result": 0.28},
      {"measurement": "MIC", "setting": "Staphylococcus aureus [30]", "result": 1.56, "unit": "µg/mL"},
      {"measurement": "fractional inhibitory concentration index (FICI)", "setting": "Staphylococcus aureus [31]", "result": 0.28},
      {"measurement": "CC50 at 24 h", "setting": "[32]", "result": "> 100", "unit": "µg/mL"},
      {"measurement": "MIC", "setting": "Staphylococcus aureus [33]", "result": 1.56, "unit": "µg/mL"},
      {"measurement": "viability at 24 h, 6.25 ug/ml", "setting": "[34]", "result": 91.5, "unit": "%"}
    ]}
  ]
}
